What was measured:
5-HT6 = 5-HT6 (Homo sapiens, UniProt P50406); test: Functional assay (cAMP); type: cell-based; design: expressed in transfected cells; host or cells: HEK-293
Experimental: (§1) Neuro-receptor binding and functional effects of the “E559 polymorph” was examined by analyzing binding affinity [Ki (nM)], functional agonist activity [EC50 (nM)], and functional antagonist activity [IC50 (nM)] against a panel of key receptors in neurophysiological disorders. Binding and functional assays were performed at “E559 polymorph” concentrations of 0.0003, 0.003, 0.01, 0.03, 0.1, 0.3, 1, and 10 μM. In binding assays, cell membrane homogenates, expressing each receptor target, were incubated with the corresponding radio-ligand in absence or presence of several concentration of the “E559 polymorph” compound. The measurement of binding affinity of the “E559 polymorph” is represented in TABLE XIII by Ki (nM) which was calculated as percent inhibition of the binding of a radioactively labeled reference ligand at each receptor. In functional assays the HEK-293 cells expressing each receptor target were suspended in buffer and distribute in microplates and incubated for 30 minutes at room temperature or 37° C. in the presence of buffer alone (basal control), the reference agonist or antagonist, or the “E559 polymorph. Following incubation, the cells were lysed and the appropriate fluorescent probe (Ca2+ flux, cAMP, or IP1) were added for 60 minutes to measure the fluorescence transfer at the appropriate wavelength using a microplate reader. The cellular agonist effect (EC50) was calculated as a percent of control response to a known reference agonist and the cellular antagonist effect (IC50) was calculated as a percent inhibition of control reference agonist response for each receptor.
The functional agonist activity [EC50 (nM), Emax], and functional antagonist activity [IC50 (nM)] of the 5R:8S stereoisomer of the “E559 polymorph” (5R:8S E558) was compared with the “E559 polymorph” (a 5R:8R stereoisomer) at selected serotonin receptors. The assays were performed as described in Example 6.

[1] = target: T1, Serotonin 2C receptor (5-HT2CR) (Homo sapiens, UniProt P28335); test: Radioligand binding, cell membrane homogenates
T1 construct: expressed in transfected cells; host or cells: HEK-293
T1 sequence (P28335 33-458): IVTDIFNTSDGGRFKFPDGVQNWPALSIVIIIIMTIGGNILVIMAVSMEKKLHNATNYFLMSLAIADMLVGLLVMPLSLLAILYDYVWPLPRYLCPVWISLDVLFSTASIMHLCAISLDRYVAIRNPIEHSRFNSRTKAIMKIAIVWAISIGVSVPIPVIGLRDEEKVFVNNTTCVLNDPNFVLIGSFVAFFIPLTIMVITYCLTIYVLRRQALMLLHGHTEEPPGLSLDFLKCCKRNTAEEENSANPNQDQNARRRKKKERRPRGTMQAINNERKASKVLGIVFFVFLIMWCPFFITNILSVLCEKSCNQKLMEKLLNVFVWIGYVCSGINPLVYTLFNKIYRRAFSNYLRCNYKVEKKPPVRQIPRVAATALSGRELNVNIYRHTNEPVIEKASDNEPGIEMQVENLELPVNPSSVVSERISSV
Experimental: as §1

[2] = target: T2, Alpha 2B adrenergic receptor (Homo sapiens, UniProt P18089); test: Radioligand binding, cell membrane homogenates
T2 construct: expressed in transfected cells; host or cells: HEK-293
T2 sequence (P18089 1-450): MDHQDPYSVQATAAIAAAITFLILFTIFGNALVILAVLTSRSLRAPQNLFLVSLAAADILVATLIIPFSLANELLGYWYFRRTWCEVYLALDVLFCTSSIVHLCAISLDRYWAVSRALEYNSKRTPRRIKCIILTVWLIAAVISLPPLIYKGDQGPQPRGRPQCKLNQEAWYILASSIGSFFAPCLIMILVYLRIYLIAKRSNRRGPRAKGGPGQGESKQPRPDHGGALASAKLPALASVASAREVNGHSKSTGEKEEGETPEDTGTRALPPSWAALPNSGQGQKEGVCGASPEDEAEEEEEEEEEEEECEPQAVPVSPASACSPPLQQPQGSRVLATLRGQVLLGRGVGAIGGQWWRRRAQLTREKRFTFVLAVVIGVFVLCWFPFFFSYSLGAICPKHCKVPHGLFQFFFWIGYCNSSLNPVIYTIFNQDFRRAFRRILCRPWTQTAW
Experimental: as §1

[3] = target: T3, Alpha 1A adrenergic receptor (Homo sapiens, UniProt P35348); test: Radioligand binding, cell membrane homogenates
T3 construct: expressed in transfected cells; host or cells: HEK-293
T3 sequence (P35348 1-466): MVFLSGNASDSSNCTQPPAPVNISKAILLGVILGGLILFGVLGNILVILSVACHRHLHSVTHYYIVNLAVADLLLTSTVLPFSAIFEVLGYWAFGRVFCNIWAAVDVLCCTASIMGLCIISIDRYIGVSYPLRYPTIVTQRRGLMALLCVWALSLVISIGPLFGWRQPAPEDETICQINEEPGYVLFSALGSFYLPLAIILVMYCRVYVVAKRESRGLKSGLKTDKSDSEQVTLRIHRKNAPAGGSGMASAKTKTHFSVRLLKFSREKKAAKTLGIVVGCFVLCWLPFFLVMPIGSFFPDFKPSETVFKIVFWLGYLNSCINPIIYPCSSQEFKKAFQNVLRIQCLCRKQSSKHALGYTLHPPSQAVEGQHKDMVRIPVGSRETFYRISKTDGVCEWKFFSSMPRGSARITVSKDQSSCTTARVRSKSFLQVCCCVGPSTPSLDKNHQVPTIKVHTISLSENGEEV
Experimental: as §1

[4] = target: T4, Serotonin 2B receptor (5-HT2BR) (Homo sapiens, UniProt P41595); test: Radioligand binding, cell membrane homogenates
T4 construct: expressed in transfected cells; host or cells: HEK-293
Experimental: as §1

[5] = target: T5, Beta 2 adrenergic receptor (Homo sapiens, UniProt P07550); test: Radioligand binding, cell membrane homogenates
T5 construct: expressed in transfected cells; host or cells: HEK-293
Experimental: as §1

[6] = target: T6, Serotonin 1A receptor (5-HT1AR) (Homo sapiens, UniProt P08908); test: Radioligand binding, cell membrane homogenates
T6 construct: expressed in transfected cells; host or cells: HEK-293
T6 sequence (P08908 1-422): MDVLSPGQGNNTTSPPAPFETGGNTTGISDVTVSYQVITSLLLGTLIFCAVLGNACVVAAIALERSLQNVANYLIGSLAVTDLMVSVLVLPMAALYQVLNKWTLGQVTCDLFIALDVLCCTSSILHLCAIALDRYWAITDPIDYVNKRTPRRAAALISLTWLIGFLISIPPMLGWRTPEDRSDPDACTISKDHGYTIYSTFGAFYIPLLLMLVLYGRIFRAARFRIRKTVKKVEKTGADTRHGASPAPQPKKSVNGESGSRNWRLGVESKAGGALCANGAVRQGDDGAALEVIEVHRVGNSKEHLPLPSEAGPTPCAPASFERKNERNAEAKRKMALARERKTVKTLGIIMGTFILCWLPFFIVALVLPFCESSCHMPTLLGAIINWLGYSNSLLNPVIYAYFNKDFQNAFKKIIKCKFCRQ
Experimental: as §1

D2S dopamine receptor = target: T7, D2S dopamine receptor (Homo sapiens, UniProt P14416); test: Radioligand binding, cell membrane homogenates
T7 construct: expressed in transfected cells; host or cells: HEK-293
Experimental: as §1

Chain of 5-HT6 (P50406 whole entry): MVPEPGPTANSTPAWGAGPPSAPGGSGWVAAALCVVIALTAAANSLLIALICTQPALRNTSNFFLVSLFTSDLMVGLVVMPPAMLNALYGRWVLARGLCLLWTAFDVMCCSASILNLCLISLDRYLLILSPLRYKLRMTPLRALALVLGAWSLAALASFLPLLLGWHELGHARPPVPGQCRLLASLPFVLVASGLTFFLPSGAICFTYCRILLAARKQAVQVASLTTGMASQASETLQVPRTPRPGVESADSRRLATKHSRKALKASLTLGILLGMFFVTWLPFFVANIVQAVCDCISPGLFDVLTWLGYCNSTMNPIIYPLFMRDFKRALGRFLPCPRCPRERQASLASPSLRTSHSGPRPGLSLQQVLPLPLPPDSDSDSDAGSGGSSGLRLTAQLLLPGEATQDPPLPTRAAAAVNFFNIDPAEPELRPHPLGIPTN
T5 sequence (P07550 whole entry): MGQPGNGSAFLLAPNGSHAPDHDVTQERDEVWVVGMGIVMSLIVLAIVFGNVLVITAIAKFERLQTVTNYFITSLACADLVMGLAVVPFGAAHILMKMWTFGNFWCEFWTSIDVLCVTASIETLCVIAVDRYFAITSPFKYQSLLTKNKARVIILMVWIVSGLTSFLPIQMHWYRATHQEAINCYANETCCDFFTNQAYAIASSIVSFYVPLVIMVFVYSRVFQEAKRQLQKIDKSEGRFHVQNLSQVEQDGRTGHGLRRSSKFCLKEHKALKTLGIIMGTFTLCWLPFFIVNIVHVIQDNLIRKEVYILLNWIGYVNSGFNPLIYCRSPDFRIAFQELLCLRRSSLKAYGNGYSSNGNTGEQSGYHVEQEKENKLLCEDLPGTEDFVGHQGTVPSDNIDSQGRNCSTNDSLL
T4 sequence (P41595 whole entry): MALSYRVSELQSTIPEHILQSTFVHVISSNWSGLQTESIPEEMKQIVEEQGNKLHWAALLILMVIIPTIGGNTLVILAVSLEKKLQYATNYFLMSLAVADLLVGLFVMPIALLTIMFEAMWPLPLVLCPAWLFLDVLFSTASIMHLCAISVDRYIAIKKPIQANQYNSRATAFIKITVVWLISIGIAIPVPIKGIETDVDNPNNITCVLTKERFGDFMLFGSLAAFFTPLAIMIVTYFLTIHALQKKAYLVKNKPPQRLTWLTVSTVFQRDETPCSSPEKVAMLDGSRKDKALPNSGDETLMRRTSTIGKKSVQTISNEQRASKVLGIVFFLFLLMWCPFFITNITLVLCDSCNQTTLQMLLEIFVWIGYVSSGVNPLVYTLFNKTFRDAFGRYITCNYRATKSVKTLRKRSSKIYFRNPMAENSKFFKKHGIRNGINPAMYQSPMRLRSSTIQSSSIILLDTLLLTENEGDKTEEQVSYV
T7 sequence (P14416 1-414 isoform P14416-2): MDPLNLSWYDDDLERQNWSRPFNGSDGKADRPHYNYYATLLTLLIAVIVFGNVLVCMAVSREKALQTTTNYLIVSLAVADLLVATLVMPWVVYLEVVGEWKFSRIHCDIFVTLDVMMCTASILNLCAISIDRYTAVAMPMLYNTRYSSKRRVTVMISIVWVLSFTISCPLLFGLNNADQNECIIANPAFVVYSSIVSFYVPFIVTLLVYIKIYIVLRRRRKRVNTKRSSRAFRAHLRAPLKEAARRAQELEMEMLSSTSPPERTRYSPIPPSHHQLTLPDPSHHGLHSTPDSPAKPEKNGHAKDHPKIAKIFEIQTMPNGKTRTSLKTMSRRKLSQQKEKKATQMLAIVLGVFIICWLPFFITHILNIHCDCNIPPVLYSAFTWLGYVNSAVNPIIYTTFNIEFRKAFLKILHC

Compound CCN(CC)C(=O)[C@@H]1C=C2c3cccc4[nH]c(Br)c(c34)C[C@H]2N(C)C1 [E559, (5R, 8R)-2-Bromo-9,10-didehydro-N,N-diethyl-6-methylergoline-8-carboxamide hemi-D-tartrate] has an EC50 (5-HT6) of 0.5 nM, an Emax (5-HT6; cAMP, ligand 5-HT, read-out: Functional Assay (agonist) Emax) of 80.1% and a Ki [1] of 19 nM. For the same compound, the Ki [2] was 27 nM, the Ki [3] was 59 nM and the Ki [4] was 7 nM. It also gave a Ki [5] of 88 nM, a Ki [6] of 9.3 nM and a Ki (D2S dopamine receptor) of 2.1 nM.
